These results are taken from patent US20010007872A1, “METHOD OF TREATING ACUTE, CHRONIC AND/OR NEUROPATHIC PAIN” (priority 1998, published 2001).

Structures are written as SMILES.

The target in data set [1] is T1, NR2B subunit containing NMDA receptor (Rattus norvegicus, UniProt P35439+Q00960).
T1 construct: from rat forebrain membranes; from tissue; host or cells: forebrain membranes of adult male CD rats
Briefly: Displacement of specific binding of racemic [3H](+)-(1S, 2S)-1-(4-hydroxy-phenyl)-2-(4-hydroxy-4-phenylpiperidino)-1-propanol ([3H]CP-101,606) from rat forebrain membranes. The settings on record: for Ratio [3H]Prazosin/[3H](+)-(1S, 2S)-1-(4-hydroxy-phenyl)-2-(4-hydroxy-4-phenylpiperidino)-1-propanol: selectivity for NR2B NMDA receptor over α1 adrenergic receptor, ratio of the two IC50, greater than three is considered selective. As for the experimental part:
This affinity is assessed in a radioligand binding assay as described below.
The binding of racemic [^3H] […] Forebrains of adult male CD rats are homogenized in 0.32M sucrose at 4° C. The crude nuclear pellet is removed by centrifugation at 1,000×g for 10 min., and the supernatant centrifuged at 17,000×g for 25 min. The resulting pellet is resuspended in 5 mM Tris acetate pH 7.4 at 4° C. for 10 min. to lyse cellular particles and again centrifuged at 17,000×g. The resulting pellet is washed twice in Tris acetate, resuspended at 10 mg protein/ml and stored at −20° C. until use.
For binding assays, membranes are thawed, homogenized, and diluted to 0.5 mg protein/ml with 50 mM Tris HCl, pH 7.4. Compounds under study are added at various concentrations followed by racemic [^3H] […] Filters are washed for 10 s with ice cold Tris HCl buffer and the radioactivity trapped on the filter quantified by liquid scintillation spectroscopy. […] Specific binding is defined as total binding minus nonspecific binding.
(§1) Affinity for the NR2B subunit containing NMDA receptor is measured as the IC50 for displacement of specific binding of racemic [^3H]

Data set [2] concerns the target α1-adrengergic receptor. Briefly: Displacement of specific binding of [3H]prazosin from rat forebrain membranes. As to conditions: 0.2 nM [3H]prazosin, IC50 for displacement of specific binding. As for the experimental part: as §1
Forebrains of adult male Sprague Dawley rats are homogenized in 20 volumes of ice cold 50 mM Tris/HCl buffer (pH 7.7). The homogenate is centrifuged at 50,000 X g for 10 min. at 4° C. The pellet is resuspended and centrifuged under identical conditions and the final pellet is resuspended in 80 volumes of 50 mM Tris/HCl (pH 8.0) at 4° C.
For binding assays, compounds under study are added at various concentrations to 500 μg membrane protein in 1 ml of 50 mM Tris/HCl buffer, followed by [^3H]prazosin (Amersham, specific activity 33 Ci/mmol, 0.2 nM final concentration). Following incubation for 30 min at 25° C. in a shaking water bath, samples are filtered onto Whatman GFB glass fiber filters using a MB48R Cell Harvester (Brandel Research and Development Laboratories, Gaithersburg Md.). Filters are washed three times for 10 s with ice cold Tris HCl buffer and the radioactivity trapped on the filter quantified by liquid scintillation spectroscopy. Nonspecific binding is determined in parallel incubations containing 100 nM prazosin. Specific binding is defined as total binding minus nonspecific binding.

T1 sequence (Q00960 27-1482, other chains not shown): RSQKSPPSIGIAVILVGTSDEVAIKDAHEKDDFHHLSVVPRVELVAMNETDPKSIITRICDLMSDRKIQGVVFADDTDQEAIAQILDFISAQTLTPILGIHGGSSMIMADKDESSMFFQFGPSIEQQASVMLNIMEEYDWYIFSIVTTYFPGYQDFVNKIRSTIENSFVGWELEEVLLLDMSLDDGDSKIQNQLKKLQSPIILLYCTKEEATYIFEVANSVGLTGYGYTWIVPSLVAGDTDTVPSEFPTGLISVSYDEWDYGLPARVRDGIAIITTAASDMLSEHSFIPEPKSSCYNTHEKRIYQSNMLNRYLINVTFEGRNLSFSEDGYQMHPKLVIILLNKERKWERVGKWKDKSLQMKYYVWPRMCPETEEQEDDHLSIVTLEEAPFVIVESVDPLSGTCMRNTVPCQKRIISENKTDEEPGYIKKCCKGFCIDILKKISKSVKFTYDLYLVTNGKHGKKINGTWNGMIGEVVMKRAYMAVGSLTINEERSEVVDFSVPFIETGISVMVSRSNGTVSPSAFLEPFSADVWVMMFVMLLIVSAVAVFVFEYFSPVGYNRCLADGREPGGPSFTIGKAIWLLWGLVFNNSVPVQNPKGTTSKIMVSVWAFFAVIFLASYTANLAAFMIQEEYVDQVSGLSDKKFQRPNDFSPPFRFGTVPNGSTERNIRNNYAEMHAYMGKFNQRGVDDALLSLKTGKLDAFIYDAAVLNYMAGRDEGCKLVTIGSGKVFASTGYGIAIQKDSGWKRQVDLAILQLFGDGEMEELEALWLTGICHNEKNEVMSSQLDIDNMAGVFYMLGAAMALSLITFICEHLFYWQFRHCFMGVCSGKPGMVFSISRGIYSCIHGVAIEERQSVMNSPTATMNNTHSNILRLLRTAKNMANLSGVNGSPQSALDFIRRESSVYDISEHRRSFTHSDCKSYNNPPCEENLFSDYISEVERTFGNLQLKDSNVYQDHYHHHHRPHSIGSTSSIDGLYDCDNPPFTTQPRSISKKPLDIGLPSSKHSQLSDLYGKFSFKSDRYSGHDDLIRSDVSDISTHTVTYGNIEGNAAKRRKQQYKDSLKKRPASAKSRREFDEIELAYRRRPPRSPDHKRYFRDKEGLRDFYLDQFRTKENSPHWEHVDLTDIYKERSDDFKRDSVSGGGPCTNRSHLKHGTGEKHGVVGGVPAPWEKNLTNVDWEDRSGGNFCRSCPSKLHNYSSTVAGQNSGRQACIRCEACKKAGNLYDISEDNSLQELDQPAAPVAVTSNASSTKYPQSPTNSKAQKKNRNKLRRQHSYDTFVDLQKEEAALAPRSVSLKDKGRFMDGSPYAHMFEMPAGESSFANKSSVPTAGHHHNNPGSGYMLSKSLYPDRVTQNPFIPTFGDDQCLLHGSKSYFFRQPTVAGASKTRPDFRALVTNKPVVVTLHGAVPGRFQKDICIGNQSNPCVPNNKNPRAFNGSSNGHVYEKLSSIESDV

For the compound `Cc1cc([C@@H](OS(C)(=O)=O)[C@@H](C)N2CCC(O)(c3ccc(F)cc3)CC2)ccc1O` (racemic) [(1R*, 2R*)-1-(4-hydroxy-3-methylphenyl)-2-(4-(4-fluorophenyl)-4-hydroxypiperidin-1-yl)-propan-1-ol-mesylate], the “Ratio [3H]Prazosin/[3H](+)-(1S, 2S)-1-(4-hydroxy-phenyl)-2-(4-hydroxy-4-phenylpiperidino)-1-propanol” value (shortened to “Ratio”) in data set [1] is 714. Also, in data set [2], the half-inhibitory concentration (IC50) (in general, the point on the concentration scale where inhibition reaches its midpoint) was determined as 10 µM.

Take `Oc1ccc2c(c1)OCC(N1CCC(O)(c3ccc(F)cc3)CC1)[C@H]2O` (stereo in doubt): the melting point – broadly, the temperature of the solid-liquid transition – was in the range of 159 to 160 °C.

With `COc1cc([C@H](O)[C@H](C)N2CCC(O)(c3ccccc3)CC2)ccc1O` [1S, 2S 1-(4-hydroxy-3-methoxyphenyl)-2-(4-hydroxy-4-phenyl-piperidin-1-yl)-propan-1-ol], in data set [1], the IC50 turned out to be 0.094 µM and the “Ratio” value was found to be 86. The half-inhibitory concentration (IC50) in data set [2] amounted to 8.1 µM.

In turn, `C[C@@H]([C@@H](O)c1ccc(O)cc1)N1CCC(O)(c2ccccc2)CC1` [(1S,2S)-1-(4-hydroxyphenyl)-2-(4-hydroxy-4-phenylpiperidin-1-yl)-1-propanol] came in with a concentration for half-maximal inhibition (IC50) in data set [2] of 19.5 µM.

As for `Oc1ccc2c(c1)OC[C@@H](N1CCC(O)(c3ccc(F)cc3)CC1)[C@H]2O` [(3R,4S)-3-[4-(4-fluorophenyl)-4-hydroxy-piperidin-1-yl] -chroman-4,7-diol], the figures for the concentration for half-maximal inhibition (IC50) in data set [1] and in data set [2] were 0.018 ± 0.003 µM and more than 10 µM, respectively. Moreover, the “Ratio” value in data set [1] is “≧555”.

In the case of `OC(CN1CCC(Cc2ccc(F)cc2)CC1)c1ccc(Cl)cc1` (stereo not shown) [Eliprodil, reference compound], the values for the half-maximal inhibitory concentration (IC50) in data set [1] and in data set [2] were 0.45 ± 0.13 µM and 0.98 ± 0.22 µM, respectively. Further, the “Ratio” value in data set [1] is given as 2.2.
